# From ChEMBL document CHEMBL4368927, “A review on flavones targeting serine/threonine protein kinases for potential anticancer drugs” (Bioorg Med Chem, 2019)
# Tests used:
# Protein kinase C (PKC) = assay: Inhibition of PKC in rat brain homogenate using FKKSFKL-NH2 as substrate preincubated for 10 mins followed by substrate addition and measured after 5 mins in presence of [gamma-32P]ATP by liquid scintillation counting analysis; type: tissue-based
# [1] = target: Cyclin-dependent kinase 6 (Homo sapiens, UniProt Q00534); assay: Inhibition of human CDK6
# Cyclin-dependent kinase 6, sequence (Q00534 whole entry): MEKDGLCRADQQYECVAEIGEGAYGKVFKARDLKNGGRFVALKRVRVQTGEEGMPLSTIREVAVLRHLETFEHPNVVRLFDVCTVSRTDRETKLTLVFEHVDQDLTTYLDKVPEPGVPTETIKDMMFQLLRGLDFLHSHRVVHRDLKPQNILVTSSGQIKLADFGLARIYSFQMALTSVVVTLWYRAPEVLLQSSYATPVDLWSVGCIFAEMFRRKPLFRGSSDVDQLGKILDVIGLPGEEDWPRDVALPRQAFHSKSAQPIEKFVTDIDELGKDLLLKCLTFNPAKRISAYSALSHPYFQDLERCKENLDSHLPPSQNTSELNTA
# [2] = target: Cyclin-dependent kinase 4 (Homo sapiens, UniProt P11802); assay: Inhibition of human CDK4
# Cyclin-dependent kinase 4, sequence (P11802 whole entry): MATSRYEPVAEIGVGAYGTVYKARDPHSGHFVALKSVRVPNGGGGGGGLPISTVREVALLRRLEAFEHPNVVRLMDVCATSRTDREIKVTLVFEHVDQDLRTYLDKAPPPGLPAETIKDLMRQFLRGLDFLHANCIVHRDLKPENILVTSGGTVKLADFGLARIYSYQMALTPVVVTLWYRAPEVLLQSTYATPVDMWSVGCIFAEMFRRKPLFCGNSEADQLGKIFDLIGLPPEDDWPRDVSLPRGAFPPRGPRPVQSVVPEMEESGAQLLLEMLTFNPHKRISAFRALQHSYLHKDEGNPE
# [3] = target: Cyclin-dependent kinase 1 (Homo sapiens, UniProt P06493); assay: Inhibition of human CDK1
# Cyclin-dependent kinase 1, sequence (P06493 whole entry): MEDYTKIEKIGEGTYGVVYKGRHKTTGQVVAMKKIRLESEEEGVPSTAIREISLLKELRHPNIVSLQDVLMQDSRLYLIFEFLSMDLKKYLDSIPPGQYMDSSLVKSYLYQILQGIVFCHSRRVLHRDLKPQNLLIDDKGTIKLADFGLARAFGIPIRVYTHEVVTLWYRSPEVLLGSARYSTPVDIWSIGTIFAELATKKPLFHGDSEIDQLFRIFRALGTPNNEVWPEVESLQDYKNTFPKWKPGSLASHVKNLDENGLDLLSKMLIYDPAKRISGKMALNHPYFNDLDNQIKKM
# [4] = target: Protein kinase C (PKC) (Rattus norvegicus) (UniProt P05696+P68403+P09216+P63319+P09215+Q64617+Q9WTQ0+P09217); assay: Inhibition of PKC in rat brain homogenate at 50 uM using FKKSFKL-NH2 as substrate preincubated for 10 mins followed by substrate addition and measured after 5 mins in presence of [gamma-32P]ATP by liquid scintillation counting analysis relative to control; type: tissue-based
# [5] = target: Serine/threonine-protein kinase pim-1 (Homo sapiens) (UniProt P11309)
# Serine/threonine-protein kinase pim-1 (Homo sapiens), sequence (P11309 whole entry, looked up): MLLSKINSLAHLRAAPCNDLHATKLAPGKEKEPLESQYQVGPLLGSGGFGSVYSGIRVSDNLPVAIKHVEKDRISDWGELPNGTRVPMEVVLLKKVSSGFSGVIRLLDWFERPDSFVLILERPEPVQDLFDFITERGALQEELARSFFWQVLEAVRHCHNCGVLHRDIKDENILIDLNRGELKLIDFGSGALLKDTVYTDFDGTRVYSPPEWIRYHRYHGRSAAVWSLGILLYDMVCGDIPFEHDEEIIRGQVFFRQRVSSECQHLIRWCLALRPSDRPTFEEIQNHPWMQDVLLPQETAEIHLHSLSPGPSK
# Description: Inhibition of PIM1 in human RWPE2 cells assessed as inhibition of cell growth
# [6] = target: Cyclin-dependent kinase 2/cyclin E1 (Homo sapiens, UniProt P24941); assay: Inhibition of human CDK2/cyclin E expressed in baculovirus expression system after 30 mins in presence of [gamma-33P]ATP by scintillation counting analysis
# HT-29 = assay: Antiproliferative activity against human HT-29 cells assessed as reduction in [3H]-thymidine incorporation after 48 hrs by liquid scintillation assay; type: functional, cell-based
# CDK7/Cyclin H/MNAT1 = CDK7/Cyclin H/MNAT1 (Homo sapiens, UniProt P50613); assay: Inhibition of recombinant human full length C-terminal His6-tagged and N-terminal GST-tagged CDK7/cyclinH/MAT1 expressed in baculovirus Sf21 insect cells after 40 mins in presence of [gamma-32P]ATP by scintillation counting analysis
# CDK7/Cyclin H/MNAT1, sequence (P51946 whole entry): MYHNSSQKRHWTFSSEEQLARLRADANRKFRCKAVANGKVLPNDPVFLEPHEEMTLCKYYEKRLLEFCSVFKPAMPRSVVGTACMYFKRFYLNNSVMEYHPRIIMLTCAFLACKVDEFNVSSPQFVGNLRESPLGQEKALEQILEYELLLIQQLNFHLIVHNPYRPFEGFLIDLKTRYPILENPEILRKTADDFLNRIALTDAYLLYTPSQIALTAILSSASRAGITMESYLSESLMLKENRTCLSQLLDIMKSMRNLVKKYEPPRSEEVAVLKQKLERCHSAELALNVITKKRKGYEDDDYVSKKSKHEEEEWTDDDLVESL
# CDK7/Cyclin H/MNAT1, sequence (P50613 whole entry): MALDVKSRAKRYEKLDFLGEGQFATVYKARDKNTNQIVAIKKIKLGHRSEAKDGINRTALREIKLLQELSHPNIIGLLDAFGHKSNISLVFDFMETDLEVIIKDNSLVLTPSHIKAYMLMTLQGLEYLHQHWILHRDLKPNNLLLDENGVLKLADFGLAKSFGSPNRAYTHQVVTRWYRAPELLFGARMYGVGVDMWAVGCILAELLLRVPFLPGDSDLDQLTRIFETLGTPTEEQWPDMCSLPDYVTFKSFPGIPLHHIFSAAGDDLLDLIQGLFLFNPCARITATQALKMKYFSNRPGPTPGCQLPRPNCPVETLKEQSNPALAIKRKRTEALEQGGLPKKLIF
# CDK7/Cyclin H/MNAT1, sequence (P51948 whole entry, further chain): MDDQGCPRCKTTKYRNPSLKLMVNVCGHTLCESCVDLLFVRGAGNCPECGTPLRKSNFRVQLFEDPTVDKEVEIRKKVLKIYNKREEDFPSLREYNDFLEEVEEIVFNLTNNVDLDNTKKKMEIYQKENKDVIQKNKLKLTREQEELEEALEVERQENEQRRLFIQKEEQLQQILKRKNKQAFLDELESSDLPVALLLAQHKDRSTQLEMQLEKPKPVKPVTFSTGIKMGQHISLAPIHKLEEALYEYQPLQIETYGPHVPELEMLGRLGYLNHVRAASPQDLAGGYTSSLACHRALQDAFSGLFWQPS
# [7] = target: Proto-oncogene tyrosine-protein kinase Src (Homo sapiens, UniProt P12931); assay: Inhibition of pp60 src (unknown origin)
# Proto-oncogene tyrosine-protein kinase Src, sequence (P12931 2-536 limits assumed): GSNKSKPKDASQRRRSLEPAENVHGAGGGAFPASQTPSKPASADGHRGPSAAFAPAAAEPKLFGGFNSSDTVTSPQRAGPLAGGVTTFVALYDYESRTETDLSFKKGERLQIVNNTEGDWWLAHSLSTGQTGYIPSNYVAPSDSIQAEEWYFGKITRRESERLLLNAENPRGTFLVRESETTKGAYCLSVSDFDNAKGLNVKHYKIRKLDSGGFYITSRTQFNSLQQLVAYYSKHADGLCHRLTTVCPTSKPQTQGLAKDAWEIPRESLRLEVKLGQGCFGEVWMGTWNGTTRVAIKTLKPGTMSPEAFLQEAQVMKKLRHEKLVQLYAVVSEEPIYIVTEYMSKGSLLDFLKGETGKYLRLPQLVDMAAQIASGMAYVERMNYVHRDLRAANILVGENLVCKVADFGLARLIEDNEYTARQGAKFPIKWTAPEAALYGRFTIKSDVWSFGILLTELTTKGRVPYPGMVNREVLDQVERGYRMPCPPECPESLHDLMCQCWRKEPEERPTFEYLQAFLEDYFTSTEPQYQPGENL
# [8] = Inhibition of CDK6/cyclin D (unknown origin); set-up: species or system Homo sapiens
# [9] = Inhibition of protein kinase A (unknown origin); set-up: species or system Homo sapiens
# [10] = target: Mitogen-activated protein kinase 3 (Homo sapiens, UniProt P27361); assay: Inhibition of Erk-1 (unknown origin)
# Mitogen-activated protein kinase 3, sequence (P27361 whole entry): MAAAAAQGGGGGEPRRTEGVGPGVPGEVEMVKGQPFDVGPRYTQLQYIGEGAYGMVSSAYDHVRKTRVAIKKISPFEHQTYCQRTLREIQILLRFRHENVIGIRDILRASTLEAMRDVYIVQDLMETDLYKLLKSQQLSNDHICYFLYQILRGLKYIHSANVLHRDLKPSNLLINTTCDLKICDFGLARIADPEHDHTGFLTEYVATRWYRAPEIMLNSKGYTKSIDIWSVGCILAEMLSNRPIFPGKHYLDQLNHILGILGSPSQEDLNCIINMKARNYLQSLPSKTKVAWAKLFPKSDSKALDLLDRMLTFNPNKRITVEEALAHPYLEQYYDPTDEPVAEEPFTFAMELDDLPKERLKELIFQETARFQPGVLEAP
structure (smiles),measurement,setting,value
O=c1c(O)c(-c2cc(O)c(O)c(O)c2)oc2cc(O)cc(O)c12 [MYRICETIN],IC50,Protein kinase C (PKC),7.8 µM
CN1CC[C@@H](c2c(O)cc(O)c3c(=O)cc(-c4ccc(C(F)(F)F)cc4Cl)oc23)[C@@H]1CO [VORUCICLIB],IC50,[1],< 0.1 µM
same,IC50,[2],< 0.1 µM
same,IC50,[3],< 0.1 µM
O=c1cc(-c2ccc(O)c(O)c2)oc2cc(O)cc(O)c12,inhibition,[4],70%
O=c1c(O)c(-c2ccc(O)c(O)c2)oc2cc(O)c(O)c(O)c12,ED50,[5],5.5 µM
CN1CC[C@@H](c2c(O)cc(O)c3c(=O)cc(-c4ccccc4Cl)oc23)[C@@H]1CO,IC50,[6],2.8 µM
same,IC50,HT-29,0.58 µM
COc1c(O)cc(O)c2c(=O)cc(-c3ccccc3)oc12 [WOGONIN],IC50,CDK7/Cyclin H/MNAT1,12.3 µM
CN1CC[C@H](c2c(O)cc(O)c3c(=O)cc(-c4ccccc4Cl)oc23)[C@H](O)C1 [ALVOCIDIB],IC50,[7],34 µM
same,IC50,[8],0.06 µM
same,IC50,[9],122 to 145 µM
same,IC50,[10],16 µM
O=c1c(O)c(-c2ccc(O)c(O)c2)oc2cc(O)cc(O)c12,inhibition,[4],64%
CN1CC[C@H](c2c(O)cc(O)c3c(=O)cc(-c4ccccc4Cl)oc23)[C@H]1CO,IC50,[6],21 µM
same,IC50,HT-29,17.9 µM
CN1CC[C@@H](c2c(O)cc(O)c3c(=O)cc(-c4ccc([N+](=O)[O-])cc4Cl)oc23)[C@@H]1CO,IC50,[6],1.7 µM
same,IC50,HT-29,1.2 µM
O=c1c(O)c(-c2ccc(O)c(O)c2)oc2cc(O)ccc12,inhibition,[4],85%
